Reference: ChEMBL document CHEMBL3885881, “DrugMatrix”

Species on record: Rattus norvegicus
Experiment: DrugMatrix - Regimen: Daily Repeat
Type: toxicity, organism-based, Sprague-Dawley
Parameters: regimen Daily Repeat, gender Male, age 6-8 weeks
Details: in vivo, po, route oral GAVAGE, vehicle .5 % CMC; for ABSOLUTE BASOPHIL / ABSOLUTE EOSINOPHIL / ABSOLUTE LYMPHOCYTE / ABSOLUTE MONOCYTE / ABSOLUTE SEGMENTED NEUTROPHIL / BASOPHIL / EOSINOPHIL / ERYTHROCYTE COUNT / HEMATOCRIT / HEMOGLOBIN / LEUKOCYTE COUNT / LYMPHOCYTE / MEAN CORPUSCULAR HEMOGLOBIN / MEAN CORPUSCULAR HEMOGLOBIN CONCENTRATION / MEAN CORPUSCULAR VOLUME / MONOCYTE / NEUTROPHIL / NUCLEATED RED BLOOD CELLS / PLATELET COUNT: tissue Blood; for ALANINE AMINOTRANSFERASE / ALBUMIN / ALKALINE PHOSPHATASE / ASPARTATE AMINOTRANSFERASE / BLOOD UREA NITROGEN / CARBON DIOXIDE / CHLORIDE / CHOLESTEROL / CREATINE PHOSPHOKINASE / CREATININE / GLUCOSE / LACTATE DEHYDROGENASE / LIPASE / PHOSPHORUS / POTASSIUM / SODIUM / TOTAL BILIRUBIN / TOTAL PROTEIN / URIC ACID: tissue Plasma
[1] = 30 mg/kg, 72 h, dose level Low, time 3 day
[2] = 30 mg/kg, 120 h, dose level Low, time 5 day
[3] = 600 mg/kg, 72 h, dose level High, time 3 day
[4] = 600 mg/kg, 120 h, dose level High, time 5 day

Cc1c(OCC(F)(F)F)ccnc1C[S+]([O-])c1nc2ccccc2[nH]1 (configuration not stated) [LANSOPRAZOLE]
ABSOLUTE BASOPHIL [1]: 0 CELLS/uL | ABSOLUTE EOSINOPHIL [1]: 38 CELLS/uL | ABSOLUTE LYMPHOCYTE [1]: 11302.33 CELLS/uL | ABSOLUTE MONOCYTE [1]: 38 CELLS/uL | ABSOLUTE SEGMENTED NEUTROPHIL [1]: 588.33 CELLS/uL | BASOPHIL [1]: 0% | EOSINOPHIL [1]: 0.33% | ERYTHROCYTE COUNT [1]: 5.49 x10E6/uL | HEMATOCRIT [1]: 34.33% | HEMOGLOBIN [1]: 12.9 G/DL | LEUKOCYTE COUNT [1]: 11.97 x10E3/uL | LYMPHOCYTE [1]: 94.33% | MEAN CORPUSCULAR HEMOGLOBIN [1]: 23.47 pg | MEAN CORPUSCULAR HEMOGLOBIN CONCENTRATION [1]: 37.53 G/DL | MEAN CORPUSCULAR VOLUME [1]: 62.53 fL | MONOCYTE [1]: 0.33% | NEUTROPHIL [1]: 5% | NUCLEATED RED BLOOD CELLS [1]: 0 /100WBC | PLATELET COUNT [1]: 1374 x10E3/uL | ALANINE AMINOTRANSFERASE [1]: 48.67 u/L | ALBUMIN [1]: 4.03 G/DL | ALKALINE PHOSPHATASE [1]: 333 u/L | ASPARTATE AMINOTRANSFERASE [1]: 84.33 u/L | BLOOD UREA NITROGEN [1]: 13.67 mg/dL | CARBON DIOXIDE [1]: 25.33 mmol/L | CHLORIDE [1]: 103 MEQ/L | CHOLESTEROL [1]: 81.33 mg/dL | CREATINE PHOSPHOKINASE [1]: 302.33 u/L | CREATININE [1]: 0.28 mg/dL | GLUCOSE [1]: 162 mg/dL | LACTATE DEHYDROGENASE [1]: 455.33 u/L | LIPASE [1]: 12 u/L | PHOSPHORUS [1]: 14.17 mg/dL | POTASSIUM [1]: 6.71 MEQ/L | SODIUM [1]: 146.4 MEQ/L | TOTAL BILIRUBIN [1]: 0.17 mg/dL | TOTAL PROTEIN [1]: 5.57 G/DL | URIC ACID [1]: 1.93 mg/dL | ABSOLUTE BASOPHIL [2]: 0 CELLS/uL | ABSOLUTE EOSINOPHIL [2]: 0 CELLS/uL | ABSOLUTE LYMPHOCYTE [2]: 12566 CELLS/uL | ABSOLUTE MONOCYTE [2]: 465.33 CELLS/uL | ABSOLUTE SEGMENTED NEUTROPHIL [2]: 1302 CELLS/uL | BASOPHIL [2]: 0% | EOSINOPHIL [2]: 0% | ERYTHROCYTE COUNT [2]: 5.54 x10E6/uL | HEMATOCRIT [2]: 36.83% | HEMOGLOBIN [2]: 13.67 G/DL | LEUKOCYTE COUNT [2]: 14.33 x10E3/uL | LYMPHOCYTE [2]: 87.67% | MEAN CORPUSCULAR HEMOGLOBIN [2]: 24.73 pg | MEAN CORPUSCULAR HEMOGLOBIN CONCENTRATION [2]: 37.17 G/DL | MEAN CORPUSCULAR VOLUME [2]: 66.5 fL | MONOCYTE [2]: 3.33% | NEUTROPHIL [2]: 9% | NUCLEATED RED BLOOD CELLS [2]: 0 /100WBC | PLATELET COUNT [2]: 1375.67 x10E3/uL | ALANINE AMINOTRANSFERASE [2]: 52.33 u/L | ALBUMIN [2]: 4.3 G/DL | ALKALINE PHOSPHATASE [2]: 288.67 u/L | ASPARTATE AMINOTRANSFERASE [2]: 81 u/L | BLOOD UREA NITROGEN [2]: 16.33 mg/dL | CARBON DIOXIDE [2]: 22.33 mmol/L | CHLORIDE [2]: 103.67 MEQ/L | CHOLESTEROL [2]: 82 mg/dL | CREATINE PHOSPHOKINASE [2]: 222.67 u/L | CREATININE [2]: 0.33 mg/dL | GLUCOSE [2]: 147 mg/dL | LACTATE DEHYDROGENASE [2]: 157.67 u/L | LIPASE [2]: 13 u/L | PHOSPHORUS [2]: 12.33 mg/dL | POTASSIUM [2]: 7.1 MEQ/L | SODIUM [2]: 147.6 MEQ/L | TOTAL BILIRUBIN [2]: 0.2 mg/dL | TOTAL PROTEIN [2]: 6.07 G/DL | URIC ACID [2]: 1.6 mg/dL | ABSOLUTE BASOPHIL [3]: 0 CELLS/uL | ABSOLUTE EOSINOPHIL [3]: 0 CELLS/uL | ABSOLUTE LYMPHOCYTE [3]: 13053.67 CELLS/uL | ABSOLUTE MONOCYTE [3]: 222.67 CELLS/uL | ABSOLUTE SEGMENTED NEUTROPHIL [3]: 690.33 CELLS/uL | BASOPHIL [3]: 0% | EOSINOPHIL [3]: 0% | ERYTHROCYTE COUNT [3]: 5.81 x10E6/uL | HEMATOCRIT [3]: 37.37% | HEMOGLOBIN [3]: 13.57 G/DL | LEUKOCYTE COUNT [3]: 13.97 x10E3/uL | LYMPHOCYTE [3]: 93.67% | MEAN CORPUSCULAR HEMOGLOBIN [3]: 23.33 pg | MEAN CORPUSCULAR HEMOGLOBIN CONCENTRATION [3]: 36.3 G/DL | MEAN CORPUSCULAR VOLUME [3]: 64.3 fL | MONOCYTE [3]: 1.33% | NEUTROPHIL [3]: 5% | NUCLEATED RED BLOOD CELLS [3]: 0.33 /100WBC | PLATELET COUNT [3]: 1408 x10E3/uL | ALANINE AMINOTRANSFERASE [3]: 39 u/L | ALBUMIN [3]: 4.1 G/DL | ALKALINE PHOSPHATASE [3]: 387.33 u/L | ASPARTATE AMINOTRANSFERASE [3]: 76.67 u/L | BLOOD UREA NITROGEN [3]: 16.33 mg/dL | CARBON DIOXIDE [3]: 28 mmol/L | CHLORIDE [3]: 104.67 MEQ/L | CHOLESTEROL [3]: 55.33 mg/dL | CREATINE PHOSPHOKINASE [3]: 222 u/L | CREATININE [3]: 0.18 mg/dL | GLUCOSE [3]: 159 mg/dL | LACTATE DEHYDROGENASE [3]: 91.33 u/L | LIPASE [3]: 9.67 u/L | PHOSPHORUS [3]: 12.23 mg/dL | POTASSIUM [3]: 6.7 MEQ/L | SODIUM [3]: 147.6 MEQ/L | TOTAL BILIRUBIN [3]: 0.13 mg/dL | TOTAL PROTEIN [3]: 5.53 G/DL | URIC ACID [3]: 1.8 mg/dL | ABSOLUTE BASOPHIL [4]: 0 CELLS/uL | ABSOLUTE EOSINOPHIL [4]: 0 CELLS/uL | ABSOLUTE LYMPHOCYTE [4]: 15467 CELLS/uL | ABSOLUTE MONOCYTE [4]: 599 CELLS/uL | ABSOLUTE SEGMENTED NEUTROPHIL [4]: 1467.33 CELLS/uL | BASOPHIL [4]: 0% | EOSINOPHIL [4]: 0% | ERYTHROCYTE COUNT [4]: 5.82 x10E6/uL | HEMATOCRIT [4]: 35.9% | HEMOGLOBIN [4]: 13.57 G/DL | LEUKOCYTE COUNT [4]: 17.53 x10E3/uL | LYMPHOCYTE [4]: 87.67% | MEAN CORPUSCULAR HEMOGLOBIN [4]: 23.33 pg | MEAN CORPUSCULAR HEMOGLOBIN CONCENTRATION [4]: 37.8 G/DL | MEAN CORPUSCULAR VOLUME [4]: 61.7 fL | MONOCYTE [4]: 3.33% | NEUTROPHIL [4]: 9% | NUCLEATED RED BLOOD CELLS [4]: 0.33 /100WBC | PLATELET COUNT [4]: 1179.67 x10E3/uL | ALANINE AMINOTRANSFERASE [4]: 36 u/L | ALBUMIN [4]: 3.93 G/DL | ALKALINE PHOSPHATASE [4]: 272.33 u/L | ASPARTATE AMINOTRANSFERASE [4]: 83.33 u/L | BLOOD UREA NITROGEN [4]: 16.67 mg/dL | CARBON DIOXIDE [4]: 28.33 mmol/L | CHLORIDE [4]: 106 MEQ/L | CHOLESTEROL [4]: 51.33 mg/dL | CREATINE PHOSPHOKINASE [4]: 144.33 u/L | CREATININE [4]: 0.17 mg/dL | GLUCOSE [4]: 138.67 mg/dL | LACTATE DEHYDROGENASE [4]: 71 u/L | LIPASE [4]: 10.67 u/L | PHOSPHORUS [4]: 10.43 mg/dL | POTASSIUM [4]: 6.81 MEQ/L | SODIUM [4]: 148.63 MEQ/L | TOTAL BILIRUBIN [4]: 0.17 mg/dL | TOTAL PROTEIN [4]: 5.73 G/DL | URIC ACID [4]: 1.27 mg/dL
